Test results taken from patent US7067533B2, “Aminophenoxyacetamide derivatives and pharmaceutical composition containing thereof” (Daiichi Asubio Pharma Co., Ltd., priority 2000, dated 2006).

Legend:
[1] = tested on: primary cultures (neurons) from cerebral cortices of fetal Wistar rats; assay: Biological Test 1: neuroprotective effect against glutamate induced neuronal cell death (MTT); assay type: cell-based, rat; details: Compound: 1 μM; glutamate 1 mM; control group = 100%
Protocol: Cultures were maintained at 37 C. in a 90% air/10% CO2 humidified incubator. Glutamate was added to the culture at day 4 to the final concentration of 1 mM. […] MTT was dissolved in phosphate buffered saline (PBS, pH 7.4) at 5 mg/ml and filtered to sterilize and remove a small amount of insoluble residue present in some batches of MTT, and added to the cultures at a final concentration of 0.5 mg/ml.
The test compounds (1 μM) was added 24 hrs prior to glutamate treatment and simultaneously with glutamate.
Survival rate of living cells (%) =[(test compound group—glutamic acid treated group)÷(control group—glutamic acid treated group)]×100

[2] = tested on: primary cultures (neurons) from cerebral cortices of fetal Wistar rats; assay: Biological Test 2: antagonism of the neuroprotective effect by MTA treatment (MTT); assay type: cell-based, rat; details: 0.75 mM MTA added 30 minutes before test compound, glutamate
Protocol: This biological test is performed to determine whether the neuroprotective effect of the test compounds is due to the activation of receptors of physiological active substances or not, by using antagonistic test for neutralizing antibody and Inhibitor for FGF, NT-3, NT-4/5, BDNF, IGF-I/II, NGF, PDGF and estrogen, respectively.
Chem., 268, 4244 (1993)]. Therefore, the neuroprotective effect of the test compounds is inhibited by treatment of MTA, this effect is depended by the signal transfer effect through the phosphorylation of FGF receptor.
The inhibitors of the various kinds of receptor were dissolved in the optimum concentration, and MTA was dissolved in the concentration of 7.5 mM, just before the using. 30 minutes before the treatment of the test compounds, the optimum concentration of each inhibitors or 0.75 mM of MTA was added, and the neuroprotective effect of the test compounds was determined by mean of MTT method.

[3] = tested on: cerebral edema (water content of cerebral hemisphere), Wistar rats; assay: Biological Test 5: cerebral edema suppressing effect; assay type: in vivo; details: iv, 144 h, rat, post-TBI day 6, read-out: Cerebral edema suppressing rate (%); for inhibition in vivo at 3 mg/kg: 3 mg/kg intravenously just after the operation; for inhibition in vivo at 1 mg/kg: 1 mg/kg intravenously just after the operation
Protocol: Adult male Wistar rats weighing 210–230 g were used in the present study and housed in an artificially controlled environment with 12-hour light/dark cycle. Animals were anesthetized with pentobarbital sodium (50 mg/kg of body weight, i.p., Nembutal, Dinabbott, Japan) and placed in a stereotaxic apparatus. The skull was exposed and a hole was made on the parietal bone; 1.5 mm posterior and 0.8 mm lateral to the bregma. All procedures were performed under a surgery microscope to avoid excess irritation to the meninges and the underlying brain. A brass screw with a blunt tip (1.0 mm in diameter and 3.0 mm in length, Biomedica, Japan) was inset in the hole. The screw tip protruding intracranially was approximately 2.5 mm, which stuck into the parietal part of the right cerebrum through the meninges. In sham-operated rats, scalp was closed without attaching a screw to the hole. After surgery, all rats were kept in their original dens until sacrifice. Rats were allowed to feed chow and water ad libitum.
Under anesthesia the rat cerebral hemispheres of the target were processed for water content on post-TBI day 6 (n=6). The cerebral hemispheres dissected out were weighed, dried for 24 hours at 110 degree (Celsius) and then weighed again. The subtracted amount of the wet and dry weights was regarded as tissue water of the target, and utilized for the analysis of the cerebral edema.
The water content was calculated by using the following formula:
Water content (%) =[(wet weight of hemisphere—dry weight of hemisphere)/wet weight of hemisphere]×100
The test compounds were intravenously administered just after the operation via tail vein of the rats.

CalbindinD-28k = assay: Biological Test 3: CalbindinD-28k inducing effect (western blot); assay type: cell-based, rat; details: control (none-treated) = 100
Protocol: Test compounds were added 5 days after initiation of the incubation, and after 7 days of incubation, the protein was extracted with homogenized buffer solution [containing 20 mm of Tris-HCl (pH=7.4), 1 mM of EDTA, and 0.1 mM of phenylmethyl-sulfonyl fluoride].
In the table, the amount of induced CalbindinD-28k of the control group (none-treated group) was 4indicated as 100 percents.

[4] = tested on: primary cultures (neurons) from cerebral cortices of fetal Wistar rats; assay: Biological Test 4: neuroprotective inhibiting effect by calbindin antisense oligonucleotide (MTT); assay type: cell-based, rat; details: 300 μM glutamic acid

| Structure (SMILES) | Survival Rate (%) (Compound: 1 μl) [1] | Survival Rate (%) (Compound: 1 μl & MTA treatment) [2] | inhibition in vivo at 3 mg/kg [3] [%] | inhibition in vivo at 1 mg/kg [3] [%] | Amount of induced CalbindineD-28k (% vs. control) (Compound: 1 μM) (CalbindinD-28k) | Survival Rate (%) [antisense (+): 5 μM] ([4]; 0.1 μM) [%] | Survival Rate (%) [antisense (−)] ([4]; 0.1 μM) [%] | Survival Rate (%) [antisense (+): 5 μM] ([4]; 1 μM) [%] | Survival Rate (%) [antisense (−)] ([4]; 1 μM) [%] |
| --- | --- | --- | --- | --- | --- | --- | --- | --- | --- |
| Cc1c(C)c(OCC(=O)N(C)C2CCN(C[C@@H]3C[C@H]3c3ccccc3)CC2)c(C)c(C)c1N (relative stereo) [Compound 13, 2-(4-Amino-2,3,5,6-tetramethylphenoxy)-N-methyl-N-[1-(trans-2-phenyl-1-cyclopropylmethyl)-4-piperidinyl]acetamide] | 65 | 13 | 13.1 | – | – | – | – | – | – |
| CCCCN1CCC(N(C)C(=O)C(C)Oc2c(C)c(C)c(N)c(C)c2C)CC1 (centres unmarked) [Compound 24, 2-(4-Amino-2,3,5,6-tetramethylphenoxy)-N-(1-butyl-4-piperidinyl)-N-methylpropanamide] | 61 | 22 | – | 10.6 | – | – | – | – | – |
| Cc1c(C)c(OCC(=O)N(C)C2CCN(C(=O)c3ccccc3)CC2)c(C)c(C)c1N [Compound 8, 2-(4-Amino-2,3,5,6-tetramethylphenoxy)-N-(1-benzoyl-4-piperidinyl)-N-methylacetamide] | 78 | 24 | – | 14 | – | – | – | – | – |
| Cc1c(C)c(OC(C)C(=O)N(C)C2CCN(CCN3CCOCC3)CC2)c(C)c(C)c1N (centres unmarked) [Compound 25, 2-(4-Amino-2,3,5,6-tetramethylphenoxy)-N-methy-N-{1-[2-(4-morpholinyl)ethyl]-4-piperidinyl}proanamide] | 87 | 16 | – | 19.1 | – | – | – | – | – |
| Cc1c(C)c(OCC(=O)N(C)C2CCN(Cc3ccc(C#N)cc3)CC2)c(C)c(C)c1N [Compound 18, 2-(4-Amino-2,3,5,6-tetramethylphenoxy)-N-[1-(4-cyano-benzyl)-4-piperidinyl]-N-methylacetamide] | 91 | 57 | – | 22.1 | – | – | – | – | – |
| Cc1c(C)c(OCC(=O)N(C)C2CCN(CCc3ccccc3)CC2)c(C)c(C)c1N [Compound 6, 2-(4-Amino-2,3,5,6-tetramethylphenoxy)-N-methyl-N-(1-phenethyl-4-piperidinyl)acetamide] | 54 | 25 | 24.9 | – | 163 | 30 | 103 | 34 | 108 |
